# Assay results reported in patent publication US7524503B2, “Human cytomegalovirus (HCMV) cytotoxic T cell epitopes, polyepitopes compositions comprising same and diagnostic and prophylactic and therapeutic uses therefor” (priority 2001, dated 2009).
# Experiments:
# HLA A3 = biological target: T1, HLA A3 (Homo sapiens, UniProt P04439); assay: MHC stabilization assay on T2 cells; assay type: cell-based; conditions: HLA A3 on transfected T2 cells; relative increase vs no peptide at 26° C.
# T1 construct: EGFP; expressed in transfected cells; host or cells: T2 cells
# T1 sequence (P04439 25-365): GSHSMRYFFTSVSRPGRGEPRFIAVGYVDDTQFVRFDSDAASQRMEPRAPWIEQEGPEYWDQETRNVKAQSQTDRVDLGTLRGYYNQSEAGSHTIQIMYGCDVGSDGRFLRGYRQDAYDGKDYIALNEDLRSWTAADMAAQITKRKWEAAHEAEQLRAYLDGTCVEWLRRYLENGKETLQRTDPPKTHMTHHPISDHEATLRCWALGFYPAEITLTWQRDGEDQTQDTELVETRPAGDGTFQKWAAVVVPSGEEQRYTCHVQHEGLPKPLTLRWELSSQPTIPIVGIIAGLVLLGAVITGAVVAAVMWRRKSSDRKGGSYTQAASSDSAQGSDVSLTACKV
# T1 sequence (P61769 21-119, further chain): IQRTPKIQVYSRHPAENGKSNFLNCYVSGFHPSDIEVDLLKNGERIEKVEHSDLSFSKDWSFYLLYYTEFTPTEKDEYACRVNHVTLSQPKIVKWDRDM
# HLA B7 = biological target: T2, HLA B7 (Homo sapiens, UniProt P01889); assay type: cell-based; conditions: HLA B7 on transfected T2 cells; relative increase vs no peptide at 26° C.
# T2 construct: expressed in transfected cells; host or cells: T2 cells
# T2 sequence (P01889 25-362): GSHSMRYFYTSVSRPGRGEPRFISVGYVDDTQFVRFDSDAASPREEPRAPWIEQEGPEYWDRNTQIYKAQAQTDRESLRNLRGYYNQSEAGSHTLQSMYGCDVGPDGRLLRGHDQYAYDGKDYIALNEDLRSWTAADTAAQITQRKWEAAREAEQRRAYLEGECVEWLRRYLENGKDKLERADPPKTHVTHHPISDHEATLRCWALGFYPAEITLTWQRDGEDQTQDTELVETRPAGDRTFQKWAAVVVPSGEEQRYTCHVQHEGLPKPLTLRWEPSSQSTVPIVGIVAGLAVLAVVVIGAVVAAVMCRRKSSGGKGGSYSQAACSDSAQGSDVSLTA
# T2 sequence (P61769 21-119, further chain): as the sequence (P61769 21-119, further chain) above
# HLA A24 = assay: MHC stabilization assay on T2 cells; assay type: cell-based, human; conditions: HLA A24 on transfected T2 cells; relative increase vs no peptide at 26° C.
# HLA B8 = assay: MHC stabilization assay on T2 cells; assay type: cell-based, human; conditions: HLA B8 on transfected T2 cells; relative increase vs no peptide at 26° C.
# [1] = tested on: PBMC from healthy HCMV seropositive donors; assay: IFN-γ ELISPOT assay; assay type: cell-based, human; conditions: peptide 10 μg/ml
# Procedure, shortened: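 IFN-γ-secreting T cells were counted as spots, with no-peptide control wells subtracted and means taken from triplicate wells. These spots came from healthy seropositive carriers' PBMC, 2.5×10^5 per well.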
# CD4+ T cells = assay: CD4+/CD8+ analysis of 20-mer peptides (intracellular IFN-γ staining or depletion ELISPOT); assay type: cell-based, human; conditions: donor two
# Procedure, shortened: (§1)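 PBMC from healthy virus carriers stimulated 6 h at 37 °C with 10 μg/ml 20-mer peptides, then stained for CD3, CD4 or CD8 and intracellular IFN-γ and read by flow cytometry. Alternatively, IFN-γ ELISPOT on bead-depleted (>90% purity) CD4+- or CD8+-depleted PBMC; expressed as % of each subset responding.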
# CD8+ T cells = assay: as above; assay type: cell-based, human; conditions: donor two
# Procedure, shortened: as §1
# [2] = tested on: peptide-sensitized autologous PHA blasts or LCLs; assay type: cell-based, human; set-up: key to CTL response: Y: Yes; ND: Not detected; conditions: overlapping 20mer peptides, Table 4
Sequence,MSE (MHC stabilization efficiency) (HLA A3),MSE (MHC stabilization efficiency) (HLA A24),further results
AIIGIYLLY (human cytomegalovirus gH CTL epitope peptide),NT/+++ (+++ = 200-300%),–,–
ALALFAAAR (human cytomegalovirus gH CTL epitope peptide),− (− = 0-50%),–,–
ALTVSEHVSY (human cytomegalovirus gH CTL epitope peptide),++ (++ = 100-199%),–,–
APVAGSMPEL (human cytomegalovirus US11 CTL epitope peptide),–,–,MSE (MHC stabilization efficiency) (HLA B7): +++ (+++ = 200-300%)
APYQRDNFIL (human cytomegalovirus gH CTL epitope peptide),–,–,MSE (MHC stabilization efficiency) (HLA B7): +++ (+++ = 200-300%)
AYEYVDYLF (human cytomegalovirus gB CTL epitope peptide),–,− (− = 0-50%),–
AYIYTTYLL (human cytomegalovirus gB CTL epitope peptide),–,− (− = 0-50%),–
CYSRPVVIF (human cytomegalovirus gB CTL epitope peptide),–,− (− = 0-50%),–
ELLAGGRVF (human cytomegalovirus pp28 CTL epitope peptide),− (− = 0-50%),–,–
ELLGRLNVY (human cytomegalovirus pp28 CTL epitope peptide),− (− = 0-50%),–,–
ELYLMGSLVH (human cytomegalovirus gH CTL epitope peptide),− (− = 0-50%),–,–
EPMSIYVYAL,–,–,MSE (MHC stabilization efficiency) (HLA B7): + (+ = 51-99%)
EYIVQIQNAF (human cytomegalovirus pp71 CTL epitope peptide),–,+++ (+++ = 200-300%),–
FPDLFCLPL (human cytomegalovirus gH CTL epitope peptide),–,–,MSE (MHC stabilization efficiency) (HLA B7): +++ (+++ = 200-300%)
GIKHEGLVK (human cytomegalovirus pp28 CTL epitope peptide),+++ (+++ = 200-300%),–,–
GVMTRGRLK,+++ (+++ = 200-300%),–,–
IIYTRNHEVK (human cytomegalovirus IE2 CTL epitope peptide),+++ (+++ = 200-300%),–,–
IMKDKNTPF (human cytomegalovirus IE2 CTL epitope peptide),–,–,MSE (MHC stabilization efficiency) (HLA B8): +++ (+++ = 200-300%)
IMREFNSYK (human cytomegalovirus gB CTL epitope peptide),+++ (+++ = 200-300%),–,ELISPOT Responses (SFC/10^6 PBMC) ([1]; donor four): MB(202) SFC/10^6 PBMC
KARDHLAVL (human cytomegalovirus pp150 CTL epitope peptide),–,–,ELISPOT Responses (SFC/10^6 PBMC) ([1]; donor four): MB(975) SFC/10^6 PBMC; MSE (MHC stabilization efficiency) (HLA B7): +++ (+++ = 200-300%)
KLGGALQAK (human cytomegalovirus IE1 CTL epitope peptide),+++ (+++ = 200-300%),–,–
KMTATFLSK (human cytomegalovirus gB CTL epitope peptide),+++ (+++ = 200-300%),–,–

Sequence,MSE (MHC stabilization efficiency) (HLA A3),MSE (MHC stabilization efficiency) (HLA A24),further results
KYTQTEEKF (human cytomegalovirus IE1 CTL epitope peptide),–,− (− = 0-50%),–
LCPKSIPGL,–,–,MSE (MHC stabilization efficiency) (HLA B8): − (− = 0-50%)
LLLQRGPQY,+++ (+++ = 200-300%),–,–
LVEPCARVY (human cytomegalovirus pp28 CTL epitope peptide),NT/++ (++ = 100-199%),–,–
LVRLVYILSK (human cytomegalovirus gH CTL epitope peptide),+++ (+++ = 200-300%),–,–
LYLCCGITL (human cytomegalovirus US6 CTL epitope peptide),–,− (− = 0-50%),–
MPRCLFAGPL (human cytomegalovirus gH CTL epitope peptide),–,–,MSE (MHC stabilization efficiency) (HLA B7): +++ (+++ = 200-300%)
MYMHDSDDVL (human cytomegalovirus gH CTL epitope peptide),–,− (− = 0-50%),–
NVRRSWEEL (human cytomegalovirus pp150 CTL epitope peptide),–,–,ELISPOT Responses (SFC/10^6 PBMC) ([1]; donor five): 274 SFC/10^6 PBMC; ELISPOT Responses (SFC/10^6 PBMC) ([1]; donor four): 1431 SFC/10^6 PBMC; MSE (MHC stabilization efficiency) (HLA B7): ++ (++ = 100-199%)
NYLDLSALL (human cytomegalovirus gH CTL epitope peptide),–,− (− = 0-50%),–
PRKKKSKRI (human cytomegalovirus IE2 CTL epitope peptide),–,–,MSE (MHC stabilization efficiency) (HLA B8): − (− = 0-50%)
QARLTVSGL,–,–,ELISPOT Responses (SFC/10^6 PBMC) ([1]; donor four): MB(1116) SFC/10^6 PBMC; MSE (MHC stabilization efficiency) (HLA B7): +++ (+++ = 200-300%)
QLNRHSYLK (human cytomegalovirus gH CTL epitope peptide),+++ (+++ = 200-300%),–,–
QPKRRRHRQ,–,–,MSE (MHC stabilization efficiency) (HLA B8): − (− = 0-50%)
QVIGDQYVK,++ (++ = 100-199%),–,–
QYILGADPL (human cytomegalovirus IE1 CTL epitope peptide),–,+++ (+++ = 200-300%),–
RHRIKEHML (human cytomegalovirus IE1 CTL epitope peptide),–,–,MSE (MHC stabilization efficiency) (HLA B8): − (− = 0-50%)
RLFPDATVP (human cytomegalovirus gH CTL epitope peptide),− (− = 0-50%),–,–
RLLDLAPNY (human cytomegalovirus pp28 CTL epitope peptide),+++ (+++ = 200-300%),–,–
RLNTYALVSK (human cytomegalovirus gH CTL epitope peptide),+++ (+++ = 200-300%),–,–
RVTGGGAMA,− (− = 0-50%),–,–
SLRNSTVVR (human cytomegalovirus gH CTL epitope peptide),+++ (+++ = 200-300%),–,–

Sequence,MSE (MHC stabilization efficiency) (HLA A3),MSE (MHC stabilization efficiency) (HLA A24),further results
SPRTHYLML (human cytomegalovirus gH CTL epitope peptide),–,–,MSE (MHC stabilization efficiency) (HLA B7): +++ (+++ = 200-300%)
SPRTHYLMLL (human cytomegalovirus gH CTL epitope peptide),–,–,MSE (MHC stabilization efficiency) (HLA B7): +++ (+++ = 200-300%)
SPWAPTAPL (human cytomegalovirus pp150 CTL epitope peptide),–,–,ELISPOT Responses (SFC/10^6 PBMC) ([1]; donor four): MB(180) SFC/10^6 PBMC; MSE (MHC stabilization efficiency) (HLA B7): +++ (+++ = 200-300%)
SYENKTMQL (human cytomegalovirus gB CTL epitope peptide),–,− (− = 0-50%),–
SYLKDSDFL (human cytomegalovirus gH CTL epitope peptide),–,− (− = 0-50%),–
SYRSFSQQL (human cytomegalovirus gH CTL epitope peptide),–,− (− = 0-50%),–
SYVVTNQYL (human cytomegalovirus gH CTL epitope peptide),–,− (− = 0-50%),–
TLLNCAVTK (human cytomegalovirus pp50 CTL epitope peptide),+++ (+++ = 200-300%),–,–
TPMLLIFGHL (human cytomegalovirus gH CTL epitope peptide),–,–,MSE (MHC stabilization efficiency) (HLA B7): ++ (++ = 100-199%)
TPRVYYQTL (human cytomegalovirus US11 CTL epitope peptide),–,–,MSE (MHC stabilization efficiency) (HLA B7): +++ (+++ = 200-300%)
TVRSHCVSK (human cytomegalovirus pp50 CTL epitope peptide),+++ (+++ = 200-300%),–,–
TYALVSKDL (human cytomegalovirus gH CTL epitope peptide),–,− (− = 0-50%),–
TYGRPIRFL (human cytomegalovirus gH CTL epitope peptide),–,− (− = 0-50%),–
VLCPKNMII [reference compound],–,–,MSE (MHC stabilization efficiency) (HLA B8): − (− = 0-50%)
VMKRRIEEI (human cytomegalovirus IE1 CTL epitope peptide),–,–,MSE (MHC stabilization efficiency) (HLA B8): + (+ = 51-99%)
VYALPLKML,–,− (− = 0-50%),–
VYLFSLVVL (human cytomegalovirus US3 CTL epitope peptide),–,− (− = 0-50%),–
VYVTVDCNL (human cytomegalovirus US2 CTL epitope peptide),–,− (− = 0-50%),–
VYYTSAFVF,–,− (− = 0-50%),–
YLMDELRYVK (human cytomegalovirus gH CTL epitope peptide),− (− = 0-50%),–,–
YYTSAFVFPTKDVALRHVVC,–,–,Responding cells (% CD4) (CD4+ T cells): 0.05%; Responding cells (% CD8) (CD8+ T cells): 0.04%; ELISPOT Responses (SFC/10^6 PBMC) ([1]; donor eight): JW(858) SFC/10^6 PBMC; ELISPOT Responses (SFC/10^6 PBMC) ([1]; donor seven): 775 SFC/10^6 PBMC; ELISPOT Responses (SFC/10^6 PBMC) ([1]; donor two): 358 SFC/10^6 PBMC; CTL response [2]: Y
YYVFHMPRCL (human cytomegalovirus gH CTL epitope peptide),–,− (− = 0-50%),–
